# Data from patent publication US12491184B2 (Veradermics, Incorporated, priority 2022, dated 2025).
# How the values were obtained:
# male adults with AGA = settings: cited from earlier work
# [1] = system: patient with androgenetic alopecia; settings: 1.25 mg QID
# patients = settings: cited from earlier work
# mice = settings: dietary, up to 2 years, 63 mg/kg/day; cited from earlier work
# [2] = oral; cited from earlier work
# [3] = 2.5 mg, 5 mg, or 10 mg oral; cited from earlier work
# animal = settings: long term animal studies; cited from earlier work
# dogs = settings: short-term administration 0.5 mg to 10 mg/kg/day; cited from earlier work
smiles,measurement,setting,value
Nc1cc(N2CCCCC2)nc(N)[n+]1[O-] [minoxidil],adverse cardiovascular outcomes,"male adults with AGA; 5 mg oral at bedtime, 24 weeks",No adverse cardiovascular outcomes
same,change in mean heart rate,"male adults with AGA; 5 mg oral at bedtime, 24 weeks",no overall change in mean heart rate
same,laboratory variables before versus after treatment,"male adults with AGA; 5 mg oral at bedtime, 24 weeks",no differences
same,subjects developing tachycardia,male adults with AGA; at the follow-up visit,1 subject
same,unwanted hair growth or other adverse events,[1],"No unwanted hair growth or other adverse events, including any cardiac effects"
same,emergence of hypertrichosis signs after starting treatment,"patients; human, in vivo",3-6 weeks
same,spontaneous reversal of hypertrichosis after cessation of therapy,"patients; human, in vivo",1-6 months
same,occurrence of hypertrichosis,patients; treated patients,most patients
same,incidence of hepatic nodules in males,mice,increased incidence of hepatic nodules
same,absorbed from the gastrointestinal tract,[2],> 90%
same,differences in systolic and diastolic blood pressure (time effects within treatments),[3],less than 10%
same,effect on blood pressure in normotensive subjects,[3],little effect on blood pressure
same,cardiac findings,animal,"cardiac hypertrophy, cardiac dilation, and serosanguineous pericardial fluid"
same,cardiac findings,dogs,various cardiac lesions
